In the oligonucleotide strings, read from the 5' end, every base follows the letter of its sugar. An asterisk marks phosphorothioate; unmarked linkages are phosphodiester. Other units and linkages are bracketed, terminal groups are in braces. A string of capitals states the bases alone. d = 2'-deoxy (DNA); m = 2'-O-methyl; r = 2'-OH (RNA)
Test system: PCSK9 mRNA
Experiment: PCSK9 siRNA screening in HepG2 cells (lipofectamine 2000 transfection, PCSK9 mRNA by Quantigene, normalized to GAP-DH)
Type: cell-based, human
Details: for Mean percent remaining mRNA transcript at siRNA concentration/in cell type 30 nM/HepG2: 30 nM siRNA; for Mean percent remaining mRNA transcript at siRNA concentration/in cell type 3 nM/HepG2: 3 nM siRNA
Protocol: HuH-7 cells were obtained from JCRB Cell Bank (Japanese Collection of Research Bioresources) (Shinjuku, Japan, cat. No.: JCRB0403) Cells were cultured in Dulbecco's MEM (Biochrom AG, Berlin, Germany, cat. No. F0435) supplemented to contain 10% fetal calf serum (FCS) (Biochrom AG, Berlin, Germany, cat. No. S0115), Penicillin 100 U/ml, Streptomycin 100 μg/ml (Biochrom AG, Berlin, Germany, cat. No. A2213) and 2 mM L-Glutamin (Biochrom AG, Berlin, Germany, cat. No K0282) at 37° C. in an atmosphere with 5% CO2 in a humidified incubator (Heraeus HERAcell, Kendro Laboratory Products, Langenselbold, Germany) HepG2 and HeLa cells were obtained from American Type Culture Collection (Rockville, Md., cat. No. HB-8065) and cultured in MEM (Gibco Invitrogen, Karlsruhe, Germany, cat. No. 21090-022) supplemented to contain 10% fetal calf serum (FCS) (Biochrom AG, Berlin, Germany, cat. No. S0115), Penicillin 100 U/ml, Streptomycin 100 μg/ml (Biochrom AG, Berlin, Germany, cat. No. A2213), 1× Non Essential Amino Acids (Biochrom AG, Berlin, Germany, cat. No. K-0293), and 1 mM Sodium Pyruvate (Biochrom AG, Berlin, Germany, cat. No. L-0473) at 37° C. in an atmosphere with 5% CO2 in a humidified incubator (Heraeus HERAcell, Kendro Laboratory Products, Langenselbold, Germany).
For transfection with siRNA, HuH7, HepG2, or HeLa cells were seeded at a density of 2.0×10^4 cells/well in 96-well plates and transfected directly. Transfection of siRNA (30 nM for single dose screen) was carried out with lipofectamine 2000 (Invitrogen GmbH, Karlsruhe, Germany, cat. No. 11668-019) as described by the manufacturer.
24 hours after transfection HuH7 and HepG2 cells were lysed and PCSK9 mRNA levels were quantified with the Quantigene Explore Kit (Genosprectra, Dumbarton Circle Fremont, USA, cat. No. QG-000-02) according to the protocol. PCSK9 mRNA levels were normalized to GAP-DH mRNA. For each siRNA eight individual datapoints were collected. siRNA duplexes unrelated to PCSK9 gene were used as control. The activity of a given PCSK9 specific siRNA duplex was expressed as percent PCSK9 mRNA concentration in treated cells relative to PCSK9 mRNA concentration in cells treated with the control siRNA duplex.
Tables 1b and 2b (and FIG. 6A) summarize the results and provide examples of in vitro screens in different cell lines at different doses. Silencing of PCSK9 transcript was expressed as percentage of remaining transcript at a given dose.
Very active sequences are those that have less than 60% of transcript remaining after treatment with a dose less than or equal to 100 nM. Active sequences are those that have less than 90% transcript remaining after treatment with a high dose (100 nM).

AD-9558: PCSK9 siRNA (sense rUrArUrCrUrUrUrUrGrGrGrUrCrUrGrUrCrCrUdT*dT; antisense rArGrGrArCrArGrArCrCrCrArArArArGrArUrAdT*dT)
Mean percent remaining mRNA transcript at siRNA concentration/in cell type 30 nM/HepG2: 66%

AD-9628: PCSK9 siRNA (sense rUrUrCrUrCrUrGrCrCrArArArGrArUrGrUrCrAdT*dT; antisense rUrGrArCrArUrCrUrUrUrGrGrCrArGrArGrArAdT*dT)
Mean percent remaining mRNA transcript at siRNA concentration/in cell type 30 nM/HepG2: 141%

AD-9585: PCSK9 siRNA (sense rCrGrGrCrArArCrUrUrCrCrGrGrGrArCrGrArUdT*dT; antisense rArUrCrGrUrCrCrCrGrGrArArGrUrUrGrCrCrGdT*dT)
Mean percent remaining mRNA transcript at siRNA concentration/in cell type 30 nM/HepG2: 83%

AD-9559: PCSK9 siRNA (sense rGrUrGrArCrCrArCrCrGrGrGrArArArUrCrGrAdT*dT; antisense rUrCrGrArUrUrUrCrCrCrGrGrUrGrGrUrCrArCdT*dT)
Mean percent remaining mRNA transcript at siRNA concentration/in cell type 30 nM/HepG2: 35%

AD-9689: PCSK9 siRNA (sense mCrGmCmUrGmCmCrGrGmCrArAmCmUmUmCmCrGrGdT*dT; antisense rCrCrGrGrArArGrUrUrGrCrCrGrGmCrArGrCrGdT*dT)
Mean percent remaining mRNA transcript at siRNA concentration/in cell type 30 nM/HepG2: 81%

AD-9606: PCSK9 siRNA (sense rUrCrGrUrGrCrUrGrGrUrCrArCrCrGrCrUrGrCdT*dT; antisense rGrCrArGrCrGrGrUrGrArCrCrArGrCrArCrGrAdT*dT)
Mean percent remaining mRNA transcript at siRNA concentration/in cell type 30 nM/HepG2: 107%

AD-9677: PCSK9 siRNA (sense UGGCGGGUGGGUACAGCCGTT; antisense CGGCUGUACCCACCCGCCATT; chemistry not given here)
Mean percent remaining mRNA transcript at siRNA concentration/in cell type 30 nM/HepG2: 62%

AD-9610: PCSK9 siRNA (sense rArGrGrUrGrUrArUrCrUrCrCrUrArGrArCrArCdT*dT; antisense rGrUrGrUrCrUrArGrGrArGrArUrArCrArCrCrUdT*dT)
IC50: 0.04 nM
Mean percent remaining mRNA transcript at siRNA concentration/in cell type 3 nM/HepG2: 34%
Mean percent remaining mRNA transcript at siRNA concentration/in cell type 30 nM/HepG2: 36%

AD-9750: PCSK9 siRNA (sense mCrGmUmCrArGmCmUmCmCrArGrGmCrGrGmUmCmCdT*dT; antisense rGrGrArCrCrGrCrCrUrGrGrArGrCrUrGrArCrGdT*dT)
Mean percent remaining mRNA transcript at siRNA concentration/in cell type 30 nM/HepG2: 96%

AD-9315: PCSK9 siRNA (sense rGrCrGrGrCrArCrCrCrUrCrArUrArGrGrCrCrUdT*dT; antisense rArGrGrCrCrUrArUrGrArGrGrGrUrGrCrCrGrCdT*dT)
IC50: 0.98 nM
Mean percent remaining mRNA transcript at siRNA concentration/in cell type 3 nM/HepG2: 32%
Mean percent remaining mRNA transcript at siRNA concentration/in cell type 30 nM/HepG2: 15%

AD-9720: PCSK9 siRNA (sense rGmCmUrGmCmCrGrGmCrArAmCmUmUmCmCrGrGrGdT*dT; antisense rCrCrCrGrGrArArGrUrUrGrCrCrGrGmCrArGrCdT*dT)
Mean percent remaining mRNA transcript at siRNA concentration/in cell type 30 nM/HepG2: 92%

AD-9673: PCSK9 siRNA (sense mCmUmCrGmCrArGmUmCrArGrArGmCrGmCrAmCmUdT*dT; antisense rArGrUrGrCrGrCrUrCrUrGrArCrUrGrCrGrArGdT*dT)
Mean percent remaining mRNA transcript at siRNA concentration/in cell type 3 nM/HepG2: 57%
Mean percent remaining mRNA transcript at siRNA concentration/in cell type 30 nM/HepG2: 56%

AD-9553: PCSK9 siRNA (sense rUrCrUrArGrArCrCrUrGrUrUrUrUrGrCrUrUrUdT*dT; antisense rArArArGrCrArArArArCrArGrGrUrCrUrArGrAdT*dT)
IC50: 0.02 nM
Mean percent remaining mRNA transcript at siRNA concentration/in cell type 3 nM/HepG2: 22%
Mean percent remaining mRNA transcript at siRNA concentration/in cell type 30 nM/HepG2: 27%

AD-9579: PCSK9 siRNA (sense rArUrCrGrArGrGrArGrGrArCrUrCrCrUrCrUrGdT*dT; antisense rCrArGrArGrGrArGrUrCrCrUrCrCrUrCrGrArUdT*dT)
Mean percent remaining mRNA transcript at siRNA concentration/in cell type 30 nM/HepG2: 113%

AD-9587: PCSK9 siRNA (sense rArCrArUrUrUrArUrCrUrUrUrUrGrGrGrUrCrUdT*dT; antisense rArGrArCrCrCrArArArArGrArUrArArArUrGrUdT*dT)
Mean percent remaining mRNA transcript at siRNA concentration/in cell type 3 nM/HepG2: 49%
Mean percent remaining mRNA transcript at siRNA concentration/in cell type 30 nM/HepG2: 63%

AD-9563: PCSK9 siRNA (sense rCrGrCrUrGrCrCrGrGrCrArArCrUrUrCrCrGrGdT*dT; antisense rCrCrGrGrArArGrUrUrGrCrCrGrGrCrArGrCrGdT*dT)
Mean percent remaining mRNA transcript at siRNA concentration/in cell type 30 nM/HepG2: 103%

AD-9735: PCSK9 siRNA (sense mCrAmCrGrGmUrAmCmCrGrGrGmCrGrGrAmUrGrAdT*dT; antisense rUmCrArUrCrCrGrCrCrCrGrGmUrArCrCrGrUrGdT*dT)
Mean percent remaining mRNA transcript at siRNA concentration/in cell type 30 nM/HepG2: 115%

AD-9565: PCSK9 siRNA (sense rUrArCrUrCrUrGrCrUrCrUrArUrGrCrCrArGrGdT*dT; antisense rCrCrUrGrGrCrArUrArGrArGrCrArGrArGrUrAdT*dT)
Mean percent remaining mRNA transcript at siRNA concentration/in cell type 30 nM/HepG2: 74%

AD-9724: PCSK9 siRNA (sense mCmCmUrGrGmUrGrGrArGrGmUrGmUrAmUmCmUmCdT*dT; antisense rGrArGrAmUrAmCrArCrCrUrCmCrArCmCrArGrGdT*dT)
Mean percent remaining mRNA transcript at siRNA concentration/in cell type 30 nM/HepG2: 127%

AD-9662: PCSK9 siRNA (sense mUmUrAmUmUmCrGrGrArArArArGmCmCrArGmCmUdT*dT; antisense rArGrCrUrGrGrCrUrUrUrUrCrCrGrArAmUrArAdT*dT)
Mean percent remaining mRNA transcript at siRNA concentration/in cell type 30 nM/HepG2: 81%

AD-9544: PCSK9 siRNA (sense rUrGrArGrGrArCrCrArGrCrGrGrGrUrArCrUrGdT*dT; antisense rCrArGrUrArCrCrCrGrCrUrGrGrUrCrCrUrCrAdT*dT)
Mean percent remaining mRNA transcript at siRNA concentration/in cell type 30 nM/HepG2: 68%

AD-9678: PCSK9 siRNA (sense rArGrGrArGmCrAmUrGrGrArAmUmCmCmCrGrGmCdT*dT; antisense rGrCrCrGrGrGrArUrUrCmCrArUrGrCrUrCrCrUdT*dT)
Mean percent remaining mRNA transcript at siRNA concentration/in cell type 30 nM/HepG2: 76%

AD-9600: PCSK9 siRNA (sense rGrUrCrGrUrGrCrUrGrGrUrCrArCrCrGrCrUrGdT*dT; antisense rCrArGrCrGrGrUrGrArCrCrArGrCrArCrGrArCdT*dT)
Mean percent remaining mRNA transcript at siRNA concentration/in cell type 30 nM/HepG2: 112%

AD-9740: PCSK9 siRNA (sense rGrGmCrArAmCmUmUmCmCrGrGrGrAmCrGrAmUrGdT*dT; antisense mCrArUrCrGrUrCrCrCrGrGrArArGrUrUrGrCrCdT*dT)
Mean percent remaining mRNA transcript at siRNA concentration/in cell type 30 nM/HepG2: 198%

AD-9737: PCSK9 siRNA (sense mUmCmCmUrArGrAmCrAmCmCrArGmCrAmUrAmCrAdT*dT; antisense rUrGmUrArUrGrCrUrGrGrUrGrUrCmUrArGrGrAdT*dT)
Mean percent remaining mRNA transcript at siRNA concentration/in cell type 30 nM/HepG2: 68%

AD-9593: PCSK9 siRNA (sense rCrArGrGrGrUrCrArUrGrGrUrCrArCrCrGrArCdT*dT; antisense rGrUrCrGrGrUrGrArCrCrArUrGrArCrCrCrUrGdT*dT)
Mean percent remaining mRNA transcript at siRNA concentration/in cell type 30 nM/HepG2: 55%

AD-9669: PCSK9 siRNA (sense mCrGmCrGmUrGmCmUmCrArAmCmUrGmCmCrArArGdT*dT; antisense rCrUrUrGrGmCrArGrUrUrGrArGmCrArCrGrCrGdT*dT)
Mean percent remaining mRNA transcript at siRNA concentration/in cell type 30 nM/HepG2: 97%

AD-9632: PCSK9 siRNA (sense rCrArArCrUrUrUrGrGrCrCrGrCrUrGrUrGrUrGdT*dT; antisense rCrArCrArCrArGrCrGrGrCrCrArArArGrUrUrGdT*dT)
Mean percent remaining mRNA transcript at siRNA concentration/in cell type 30 nM/HepG2: 34%

AD-9692: PCSK9 siRNA (sense mUrGmCmCrGrGrGmCmCmCrAmCrArAmCrGmCmUmUdT*dT; antisense rArArGrCrGrUrUrGrUrGrGrGrCrCrCrGrGmCrAdT*dT)
Mean percent remaining mRNA transcript at siRNA concentration/in cell type 30 nM/HepG2: 78%

AD-9591: PCSK9 siRNA (sense rArCrUrGrUrCrCrCrUrCrCrUrUrGrArGrCrArCdT*dT; antisense rGrUrGrCrUrCrArArGrGrArGrGrGrArCrArGrUdT*dT)
Mean percent remaining mRNA transcript at siRNA concentration/in cell type 30 nM/HepG2: 95%
Mean percent remaining mRNA transcript at siRNA concentration/in cell type 100 nM/HepG2 (100 nM siRNA): 75%

AD-9683: PCSK9 siRNA (sense mCmCrAmCmCrGrGrGrArArAmUmCrGrArGrGrGmCdT*dT; antisense rGrCrCrCrUrCrGrArUrUrUrCrCrCrGrGrUrGrGdT*dT)
Mean percent remaining mRNA transcript at siRNA concentration/in cell type 30 nM/HepG2: 48%
